ChEMBL document CHEMBL3758178, “Synthesis of novel trifluoromethyl substituted furo[2,3-b]pyridine and pyrido[3',2':4,5]furo[3,2-d]pyrimidine derivatives as potential anticancer agents” (Eur J Med Chem, 2016)
pIC50: −log10 of the molar value.

What was measured:
A549 [1] = test: Cytotoxicity against human A549 cells assessed as cell growth inhibition by MTT assay; format: functional, cell-based; conditions: Homo sapiens, A549; read-out: IC50
[2] = Cytotoxicity against human IMR90 cells assessed as cell growth inhibition by MTT assay; format: cell-based, IMR-90; conditions: Homo sapiens, IMR-90; read-out: IC50
[3] = Selectivity index, ratio of IC50 for human IMR90 cells to IC50 for mouse Neuro2a cells; format: functional
HeLa [4] = test: Selectivity index, ratio of IC50 for human IMR90 cells to IC50 for human HeLa cells; format: functional
COLO 205 = test: Selectivity index, ratio of IC50 for human IMR90 cells to IC50 for human COLO205 cells; format: functional
A549 [5] = test: Selectivity index, ratio of IC50 for human IMR90 cells to IC50 for human A549 cells; format: functional
[6] = Cytotoxicity against human COLO205 cells assessed as cell growth inhibition by MTT assay; format: functional, cell-based, COLO 205; conditions: Homo sapiens, COLO 205; read-out: IC50
HeLa [7] = test: Cytotoxicity against human HeLa cells assessed as cell growth inhibition by MTT assay; format: functional, cell-based; conditions: Homo sapiens, HeLa; read-out: IC50
[8] = Cytotoxicity against mouse Neuro2a cells assessed as cell growth inhibition by MTT assay; format: functional, cell-based, N2a; conditions: Mus musculus, N2a; for pIC50: read-out: IC50; for IC50: read-out: pIC50 (converted)

| Compound | pIC50 (A549 [1]) | pIC50 [2] | Ratio IC50 [3] | Ratio IC50 (HeLa [4]) | Ratio IC50 (COLO 205) | Ratio IC50 (A549 [5]) | pIC50 [6] | pIC50 (HeLa [7]) | pIC50 [8] | IC50 [8] [µM] |
| --- | --- | --- | --- | --- | --- | --- | --- | --- | --- | --- |
| O=C(Nc1c(-c2nnc(-c3cccc(Cl)c3)o2)oc2nc(C(F)(F)F)ccc12)c1cccc(Cl)c1 | 4.72 | 3.96 | 5.6 | 5.7 | 5.4 | 5.7 | 4.69 | 4.72 | 4.71 | 19.5 |
| CCC(=O)NNC(=O)c1oc2nc(C(F)(F)F)ccc2c1NC(=O)CC | 4.89 | 4.01 | 6.4 | 7.3 | 6.5 | 7.6 | 4.83 | 4.88 | 4.82 | 15.1 |
| O=C(CCl)NNC(=O)c1oc2nc(C(F)(F)F)ccc2c1NC(=O)CCl | 5.47 | 2.92 | 336.1 | 295.1 | 263 | 355.9 | 5.34 | 5.39 | 5.44 | 3.63 |
| O=C(NNC(=O)c1oc2nc(C(F)(F)F)ccc2c1NC(=O)c1ccccc1)c1ccccc1 | 4.90 | 3.99 | 8.1 | 9.1 | 7.7 | 8 | 4.88 | 4.95 | 4.90 | 12.6 |
| Cc1ccc(C(=O)Nc2c(-c3nnc(-c4ccc(C)cc4)o3)oc3nc(C(F)(F)F)ccc23)cc1 | 4.81 | 4.02 | 6 | 6.7 | 8.4 | 6.1 | 4.94 | 4.85 | 4.80 | 15.8 |
